Experimental data from patent publication US12180187B2, “1-phenyl-5-azinylpyrazolyl-3-oxyalkyl acids and their use for controlling unwanted plant growth” (BAYER AKTIENGESELLSCHAFT, priority 2019, dated 2024).
Several values for one entry are separate records, joined by “and”; a condition that tells them apart may be missing. Equal entries are not always repeated.

Tests used:
DIGSA [1] = test: Pre-emergence action against DIGSA, 1280 g/ha; type: in vivo, Digitaria sanguinalis; conditions: visual scoring after about 3 weeks vs untreated controls, 100% = plants have died, 0% = like control plants
Procedure, shortened: (§1)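 Sandy loam pots, seeds covered with soil; aqueous WP/EC spray on covering soil, 0.5% additive, 600 L/ha. Greenhouse growth, good conditions. Readout: visual % activity at ~3 weeks (0% = like control, 100% = dead).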

LOLRI [2] = test: Pre-emergence action against LOLRI, 1280 g/ha; type: in vivo, Lolium rigidum; conditions: visual scoring after about 3 weeks vs untreated controls, 100% = plants have died, 0% = like control plants; for pest or weed control at 1280 g/ha: Lolium rigidum, 504 h
Procedure, shortened: as §1

VERPE [3] = test: Pre-emergence action against VERPE, 1280 g/ha; type: in vivo, Veronica persica; conditions: scored visually after about 3 weeks vs untreated controls (100% = plants have died); for pest or weed control at 1280 g/ha: Veronica persica, 504 h
Procedure, shortened: as §1

AVEFA = test: Pre-emergence action at 320 g/ha against AVEFA; type: in vivo; conditions: visual scoring after about 3 weeks vs untreated controls; for pest or weed control at 320 g/ha: Avena fatua, 504 h
Procedure, shortened: (§2)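 WP/EC formulations applied pre-emergence to covering soil, water rate 600 l/ha, 0.5% additive. Greenhouse, ~3 weeks. Visual % damage vs untreated (0–100%).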

LOLRI [4] = test: Pre-emergence action at 320 g/ha against LOLRI; type: in vivo, Lolium rigidum; conditions: visual scoring after about 3 weeks vs untreated controls; for pest or weed control at 320 g/ha: Lolium rigidum, 504 h
Procedure, shortened: as §2

VERPE [5] = test: Pre-emergence action at 320 g/ha against VERPE; type: in vivo, Veronica persica; conditions: visual scoring after about 3 weeks vs untreated controls; for pest or weed control at 320 g/ha: Veronica persica, 504 h
Procedure, shortened: as §2

ALOMY [6] = test: Post-emergence action against ALOMY, 1.28 kg/ha; type: in vivo, Alopecurus myosuroides; conditions: dosage 1280 g/ha, visual rating about 3 weeks after treatment vs untreated controls
Procedure, shortened: (§3)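 Post-emergence greenhouse spray, one-leaf stage (2–3 wk after sowing), sandy loam. WP/EC, aqueous + 0.5% additive, 600 L/ha water. Visual % activity vs untreated, ~3 wk after treatment; 100% = plants dead.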

DIGSA [7] = test: Post-emergence action against DIGSA, 1.28 kg/ha; type: in vivo, Digitaria sanguinalis; conditions: dosage 1280 g/ha, visual rating about 3 weeks after treatment vs untreated controls
Procedure, shortened: as §3

SETVI = test: Post-emergence action against SETVI, 1.28 kg/ha; type: in vivo, Setaria viridis; conditions: dosage 1280 g/ha, visual rating about 3 weeks after treatment vs untreated controls
Procedure, shortened: as §3

MATIN = test: Post-emergence action against MATIN, 1.28 kg/ha; type: in vivo, Tripleurospermum inodorum (Matricaria inodora); conditions: dosage 1280 g/ha, visual rating about 3 weeks after treatment vs untreated controls (100% = plants died)
Procedure, shortened: as §3

STEME = test: Post-emergence action against STEME, 1.28 kg/ha; type: in vivo, Stellaria media; conditions: dosage 1280 g/ha, visual rating about 3 weeks after treatment vs untreated controls (100% = plants died)
Procedure, shortened: as §3

VERPE [8] = test: Post-emergence action against VERPE, 1.28 kg/ha; type: in vivo, Veronica persica; conditions: dosage 1280 g/ha, visual rating about 3 weeks after treatment vs untreated controls (100% = plants died); for pest or weed control at 1280 g/ha: Veronica persica, 504 h
Procedure, shortened: as §3

ALOMY [9] = test: Post-emergence action against ALOMY, 320 g/ha; type: in vivo, Alopecurus myosuroides; conditions: dosage 320 g/ha, visual rating about 3 weeks after treatment vs untreated controls (100% = plants died)
Procedure, shortened: (§4)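 Greenhouse pot plants in sandy loam received a foliar spray of WP- or EC-formulated compound at the one-leaf stage. Percent activity against untreated controls was assessed visually around three weeks later.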

AMARE = test: Post-emergence action at 320 g/ha against AMARE; type: in vivo, Amaranthus retroflexus; conditions: visual rating about 3 weeks after treatment vs untreated controls; for pest or weed control at 320 g/ha: Amaranthus retroflexus, 504 h
Procedure, shortened: as §4

PHBPU = test: Post-emergence action at 320 g/ha against PHBPU; type: in vivo; conditions: visual rating about 3 weeks after treatment vs untreated controls
Procedure, shortened: as §4

ABUTH = test: Pre-emergence action against ABUTH, 1280 g/ha; type: in vivo, Abutilon theophrasti; conditions: scored visually after about 3 weeks vs untreated controls (100% = plants have died)
Procedure, shortened: as §1

Row | Structure (SMILES) | Pre-emergence action against DIGSA (DIGSA [1]) [%] | Pre-emergence action against LOLRI (LOLRI [2]) [%] | Pre-emergence action against VERPE (VERPE [3]) [%] | Pre-emergence action against LOLRI in % (LOLRI [4]) [%] | Post-emergence action against ALOMY (ALOMY [6]) [%] | Post-emergence action against DIGSA (DIGSA [7]) [%] | Post-emergence action against SETVI (SETVI) | Post-emergence action against MATIN (MATIN) | Post-emergence action against STEME (STEME) [%] | Post-emergence action against VERPE (VERPE [8]) [%] | Post-emergence action against ALOMY (ALOMY [9]) [%] | Post-emergence action against AMARE in % (AMARE) [%] | Post-emergence action against PHBPU in % (PHBPU) | pest or weed control at 1280 g/ha (LOLRI [2]) [%] | Pre-emergence action against ABUTH (ABUTH) [%] | pest or weed control at 1280 g/ha (VERPE [3]) [%] | pest or weed control at 320 g/ha (AVEFA) [%] | pest or weed control at 320 g/ha (LOLRI [4]) [%] | pest or weed control at 320 g/ha (VERPE [5]) [%] | pest or weed control at 1280 g/ha (VERPE [8]) [%] | other results
1 | CS(=O)(=O)NC(=O)COc1nn(-c2ccccc2F)c(-c2ccc(F)nc2)c1Br [Example X-004] | 90 | 100 | 90 | 100 | 100 | 100 | 90% | 90% | 100 | 100 | 100 | 90 | 90% | – | – | – | – | – | – | – | Pre-emergence action against AVEFA in % (AVEFA): 90%; Pre-emergence action against VERPE in % (VERPE [5]): 100%
2 | COC(=O)COc1nn(-c2ccccc2F)c(-c2cncnc2)c1Br [VI-004, Methyl {[4-bromo-1-(2-fluorophenyl)-5-(pyrimidin-5-yl)-1H-pyrazol-3-yl]oxy}acetate] | – | – | – | – | – | – | 90% | 100% | 90 | – | – | – | 80% | 100 | 90 | 90 | 90 | 90 | 100 | 90 | pest or weed control at 320 g/ha (AMARE): 90%
3 | O=C(O)COc1nn(-c2ccccc2F)c(-c2cncnc2)c1Br [VI-007, {[4-Bromo-1-(2-fluorophenyl)-5-(pyrimidin-5-yl)-1H-pyrazol-3-yl]oxy}acetic Acid] | 100 | – | – | – | 90 | 100 | 90% | 90% | 100 | – | – | – | 90% | 100 | 90 | 90 | 90 | 100 | 100 | 90 | pest or weed control at 320 g/ha (AMARE): 80%
4 | C[C@@H](Oc1nn(-c2ccccc2F)c(-c2cncnc2)c1Br)C(=O)O [VI-012] | 90 | 100 | 100 | 90 | 100 | 90 | 90% | – | 90 | 90 | – | 80 | 80% | – | 90 | – | – | – | – | – | Pre-emergence action against AVEFA in % (AVEFA): 80%; Pre-emergence action against VERPE in % (VERPE [5]): 100%
5 | COC(=O)[C@@H](C)Oc1nn(-c2ccccc2)c(-c2cncnc2)c1Br [VI-013] | 100 | 100 | 100 | 90 | 100 | 90 | 90% | 100% | 100 | 100 | 80 | 90 | 80% | – | 90 | – | – | – | – | – | –
6 | O=C(O)COc1nn(-c2ccccc2F)c(-c2ccc(F)nc2)c1Br [VII-003, {[4-Bromo-1-(2-fluorophenyl)-5-(6-fluoropyridin-3-yl)-1H-pyrazol-3-yl]oxy}acetic acid] | 100 | – | – | – | 90 | 100 | 90% | 100% | 100 | – | 80 | – | 90% | 100 | – | 90 | 90 | 100 | 100 | 90 | pest or weed control at 320 g/ha (AMARE): 90%
7 | CCOC(=O)COc1nn(-c2ccccc2F)c(-c2ccc(F)nc2)c1Br [VII-012, Ethyl {[4-bromo-1-(2-fluorophenyl)-5-(6-fluoropyridin-3-yl)-1H-pyrazol-3-yl]oxy}acetate] | 100 | – | – | – | 100 | 100 | 100% and 90% | 100% and 90% | 100 | – | 90 | – | 90% and 80% | 100 | – | 100 | 90 | 90 | 100 | 90 | pest or weed control at 320 g/ha (AMARE): 90%
8 | COC(=O)COc1nn(-c2ccccc2F)c(-c2ccc(F)nc2)c1F [VII-040] | 100 | 100 | 100 | 100 | 100 | 100 | 90% | 90% | 100 | 100 | 100 | 90 | 90% | – | – | – | – | – | – | – | Pre-emergence action against AVEFA in % (AVEFA): 100%; Pre-emergence action against VERPE in % (VERPE [5]): 100%
